How the values were obtained:
[1] = system: A549 (lung) cancer cells; test: MTT cell viability assay, A549; assay type: cell-based; conditions: average ± SD (n = 3)
Protocol: Compounds 4a–n were subjected to the cytotoxicity screening of the cell lines MCF-7 (breast), LoVo (colon), HepG2 (liver) and A549 (lung) carcinoma cells as well as HUVEC normal cell lines. The MTT assay was employed to assess cytotoxicity after 48 h of treatment with different concentrations of each compound and doxorubicin was used as a reference drug. The results were presented in Table 1 as growth inhibitory concentration (IC50 values).
Cell viability was determined using 3-(4,5-dimethylthiazol-2-yl)-2,5-diphenyl tetrazolium bromide (MTT) assay as stated previously. In brief, A549 (lung), HepG2 (liver), LoVo (colon), MCF-7 (breast) cancer cells as well as normal cells (HUVEC) were seeded in 96-well plates (10^5 per well) and compounds were added in a different final concentration. All cells were treated for 48 h, and then 10μL of MTT reagent (5 mg/mL) was added to each well and further incubated for 4 h. Thereafter, 0.1 mL of acidified isopropanol was added to solubilize formazan product and the developed color was measured at 570 nm in Microplate ELISA Reader (BioTek, Elx-800, Winooski, VT, USA). The IC50 values (concentration required for 50% inhibition of cell viability) were calculated using dose response curve. Cell viability was calculated as = (Ab Treated/Ab Control) × 100.
The A549, HepG2, LoVo and MCF-7 cancer cell lines were obtained from the German Collection of Microorganisms and Cell Cultures (DSMZ) (Braunschweig, Germany). For Human umbilical vein endothelial cells (HUVEC cells), it was purchased from American Type Culture Collection (16549; Cat no. PCS-100-010; ATTCC, Manassas, VA, USA).

[2] = system: MCF-7 cells; test: Cell cycle analysis by PI staining and flow cytometry; assay type: cell-based, human; conditions: 24 h, mean ± SD, control 57.91 ± 0.61%
Protocol: Indeed, designing of new chemotherapeutic drugs targeting cell cycle progression and apoptosis is considered as an attractive strategy. To explore the antiproliferative effect of compounds 4d and 4f, cell-cycle analysis was performed in MCF-7 cells were examined. The cells were treated with various concentrations of both compound for 24 h, stained with propidium iodide (PI) and analyzed by flow cytometry. As shown in (Figure 2), the incubation of MCF-7 cells with (1.25, 2.5, and 5 μM) of compound 4d for 24 h increased the percentage of cells at G1 (from 57.91 ± 0.61% in control) to 62.51 ± 0.14%, 64.95 ± 0.21% and 66.55 ± 0.78% in treated cells, respectively.
Cell cycle distribution was evaluated by PI staining as previously described. Briefly, MCF-7 cells were seeded and incubated for a period of 24 h to allow for attachment. Subsequently, cells were exposed to different concentrations of compounds 4d and 4f. After 24 h, cells were harvested and fixed in 70% ethanol. Thereafter, cells were washed with PBS, resuspended in 1 mL of PBS containing PI (50 μg/mL), RNase A (0.5 mg/mL), sodium citrate (0.1%) and Triton X-100 (0.1%), then incubated for 15 min in the dark at room temperature. Flow cytometry was carried out by a FACS Scan Flow Cytometer (Cytomics FC 500; Beckman Coulter, Brea, CA, USA). The data were analyzed using CXP software V. 3.0.

[3] = system: MCF-7 cells; test: Annexin V-FITC/PI apoptosis detection; assay type: cell-based, human; conditions: 24 h, mean ± SD; for early apoptotic cells: untreated 1.05 ± 0.07%; for late apoptotic cells: control 1.75 ± 0.07%
From the text: In addition to cell cycle arrest, apoptosis is another important anticancer process that inhibits cancer cell proliferation. Therefore, we further used a double labeling staining with Annexin V-FITC and PI to investigate apoptotic cell death. Phosphatidylserine exposure on the cell surface is a hallmark of early and late apoptotic cells, which can be easily identified with Annexin V-FITC [27].
Apoptotic cells were detected using Annexin V-FITC/PI staining protocol (BioLegend, San Diego, CA, USA) according to the manufacturer’s recommendations. Briefly, MCF-7 cells were incubated for 24 h with the different doses of promising compounds 4d and 4f. The cells were then harvested, washed twice with cold PBS and re-suspended with 1× Annexin V binding buffer (100 µL). Thereafter, cells were transferred into flow cytometry tube and stained with 5 μL of Annexin V- FITC and 5 μL PI for 15 min at room temperature in the dark. The cells were processed for apoptosis using a FACS Scan Flow Cytometer (Cytomics FC 500; Beckman Coulter, Brea, CA, USA) and analyzed using CXP software V. 3.0.

[4] = system: Bcl-2; test: RT-PCR of apoptotic genes, Bcl-2; assay type: cell-based, human; conditions: 24 h, vs DMSO-vehicle treated cells
From the text: We next used reverse transcription polymerase chain reaction (RT-PCR) and Western blot analysis to look at Bax (proapoptotic), Bcl-2 (antiapoptotic) and caspase 7 (executioner caspase) expression at gene and protein level as an additional marker of apoptosis occurrence. In fact, apoptotic cell death is mostly directed by the levels of Bcl-2 family, whether they are pro-apoptotic or antiapoptotic and targeting these molecules as a therapeutic strategy is continuously under development. As predicted, we observed an upregulation in the expression of Bax in MCF-7 treated cells to (1.7-, 2- and 2.4-fold) with compound 4d and to (1.2-, 1.4- and 1.6-fold) with compound 4f at (1.25, 2.5 and 5 µM) respectively (Figure 6). […] This shifting in Bax to Bcl-2 ratio usually started caspases activation which plays a critical role in apoptosis execution. Among all caspases, caspase 7 is considered as one of the most crucial executioner caspases that mediate cell death, and its expression strongly correlates with apoptosis stimulation.
The MCF-7 cells (0.1 × 10^6) in 12 well plates were treated with different concentrations of compounds 4d and 4f for 24 h and untreated cells were used as a control. After 24 h of treatment, cell culture media was removed and the cells were lysed with Trizol (Invitrogen, Waltham, MA, USA), and total RNA was extracted from all the samples [42]. The RNA was estimated by Nano-drop and 1 µg of RNA was used in the cDNA synthesis. The cDNA was synthesized from RNA by using a cDNA synthesis kit (Invitrogen, Thermo Fisher Scientific, lnc., Waltham, MA, USA) according to the manufacturer’s instruction. After Reverse transcription at 42 °C for 60 min, RT-PCR was performed using 5× Firepol Master Mix ready to load (Solis BioDyne) according to manufacturer’s instruction. RT-PCR was used to analyze the gene expression level of P53, Bcl2, Bax and caspase 7 using specific sets of primers for each gene, while β-actin was utilized as a housekeeping gene. The program was run as follows, initial denaturation at 95 °C for 5 min; denaturation at 95 °C for 30 s; annealing at 55 °C for 45 s; elongation at 72 °C for 45 s (30 Cycles) and final extension at 72 °C for 10 min. The RT-PCR products were electrophoresed on a 1.2% agarose gel containing ethidium bromide and the gel was imaged on a Licor machine.

Row | IC50 ([1]; 48 h) [µM] | IC50 ([1]; Homo sapiens, A549, 48 h) [µM] | SMILES | percentage of cells at G1 ([2]; 1.25 μM) [%] | percentage of cells at G1 ([2]; 2.5 μM) [%] | percentage of cells at G1 ([2]; 5 μM) [%] | early apoptotic cells ([3]; 1.25 µM) [%] | early apoptotic cells ([3]; 2.5 µM) [%] | early apoptotic cells ([3]; 5 µM) [%] | Bcl-2 expression (RT-PCR) ([4]; MCF-7, 1.25 µM) [fold] | Bcl-2 expression (RT-PCR) ([4]; MCF-7, 2.5 µM) [fold] | Bcl-2 expression (RT-PCR) ([4]; MCF-7, 5 µM) [fold] | late apoptotic cells ([3]; 1.25 µM) [%] | late apoptotic cells ([3]; 2.5 µM) [%] | late apoptotic cells ([3]; 10 µM) [%]
1 | 6.6 ± 0.22 | 5.6 | COc1cccc2c(=O)n(-c3ccc(S(=O)(=O)NCC(=O)Nc4ccc(C)cc4)cc3)c(SCC(=O)Nc3ccc(C)cc3)nc12 [Compound 4d] | 62.51 ± 0.14 | 64.95 ± 0.21 | 66.55 ± 0.78 | 44.45 ± 1.06 | 67.55 ± 1.34 | 83.75 ± 2.19 | 0.88 | 0.68 | 0.49 | – | – | –
2 | – | 10.1 ± 0.24 | CCc1cccc(NC(=O)CNS(=O)(=O)c2ccc(-n3c(SCC(=O)Nc4cccc(CC)c4)nc4c(OC)cccc4c3=O)cc2)c1 [Compound 4f, N-(3-ethylphenyl)-2-((3-(4-(N-(2-((3-ethylphenyl)amino)-2-oxoethyl)sulfamoyl)-phe-nyl)-8-methoxy-4-oxo-3,4-dihydroquinazolin-2yl)thio)acetamide] | 61.65 ± 0.21 | 62.65 ± 0.35 | 65.15 ± 0.36 | – | – | – | 0.92 | 0.68 | 0.62 | 15.4 ± 0.28 | 31.05 ± 1.06 | 52.4 ± 0.28
